Measured values reported in patent publication US8729078B2, “Inhibitors of bruton's tyrosine kinase” (Hoffmann-La Roche Inc., priority 2011, dated 2014).
pIC50: −log10 of the molar value.

Legend:
Btk = Btk (Homo sapiens (Human), UniProt Q06187); assay: Bruton's Tyrosine Kinase (Btk) inhibition assay (FRET BTK); format: biochemical
Ramos cells = assay: Inhibition of B-cell activation, B cell FLIPR assay in Ramos cells (anti-IgM stimulated calcium increase); format: cell-based; conditions: Homo sapiens, anti-IgM stimulated Ca2+ signaling
From the text: Inhibition of B-Cell Activation—B Cell FLIPR Assay in Ramos Cells
The B cell FLIPR assay is a cell based functional method of determining the effect of potential inhibitors of the intracellular calcium increase from stimulation by an anti-IgM antibody. Ramos cells (human Burkitt's lymphoma cell line. ATCC-No. CRL-1596) were cultivated in Growth Media (described below). One day prior to assay, Ramos cells were resuspended in fresh growth media (same as above) and set at a concentration of 0.5×10^6/mL in tissue culture flasks. On day of assay, cells are counted and set at a concentration of 1×10^6/mLl in growth media supplemented with 1 μM FLUO-3AM (TefLabs Cat-No. 0116, prepared in anhydrous DMSO and 10% Pluronic acid) in a tissue culture flask, and incubated at 37° C. (4% CO2) for one h. To remove extracellular dye, cells were collected by centrifugation (5 min, 1000 rpm), resuspended in FLIPR buffer (described below) at 1×10^6 cells/mL and then dispensed into 96-well poly-D-lysine coated black/clear plates (BD Cat-No. 356692) at 1×10^5 cells per well. Test compounds were added at various concentrations ranging from 100 μM to 0.03 μM (7 concentrations, details below), and allowed to incubate with cells for 30 min at RT. Ramos cell Ca^2+ signaling was stimulated by the addition of 10 μg/mL anti-IgM (Southern Biotech, Cat-No. 2020-01) and measured on a FLIPR (Molecular Devices, captures images of 96 well plates using a CCD camera with an argon laser at 480 nm excitation).
Growth Medium: RPMI 1640 medium with L-glutamine (Invitrogen, Cat-No. 61870-010), 10% Fetal Bovine Serum (FBS, Summit Biotechnology Cat-No. FP-100-05); 1 mM Sodium Pyruvate (Invitrogen Cat. No. 11360-070).
FLIPR buffer: HBSS (Invitrogen, Cat-No. 141175-079), 2 mM CaCl2 (Sigma Cat-No. C-4901), HEPES (Invitrogen, Cat-No. 15630-080), 2.5 mM Probenecid (Sigma, Cat-No. P-8761), 0.1% BSA (Sigma, Cat-No. A-7906), 11 mM Glucose (Sigma, Cat-No. G-7528)
Compound Dilution Details:
In order to achieve the highest final assay concentration of 100 μM, 24 μL of 10 mM compound stock solution (made in DMSO) is added directly to 576 μL of FLIPR buffer. The test compounds are diluted in FLIPR Buffer (using Biomek 2000 robotic pipettor) resulting in the following dilution scheme: vehicle, 1.00×10^−4 M, 1.00×10^−5, 3.16×10^−6, 1.00×10^−6, 3.16×10^−7, 1.00×10^−7, 3.16×10^−8.
Intracellular increases in calcium were reported using a max-min statistic (subtracting the resting baseline from the peak caused by addition of the stimulatory antibody using a Molecular Devices FLIPR control and statistic exporting software. The IC50 was determined using a non-linear curve fit (GraphPad Prism software).

[1] = test system: B cells in human whole blood (CD69 expression); assay: Inhibition of B cell activation in whole blood measured by CD69 expression; format: cell-based; conditions: anti-IgM stimulation, CD69-positive CD20-positive cells
Method: Inhibition of B Cell Activation in Whole Blood Measured by CD69 Expression
A procedure to test the ability of Btk inhibitors to suppress B cell receptor-mediated activation of B cells in human blood is as follows:
Human whole blood (HWB) is obtained from healthy volunteers, with the following restrictions: 24 hr drug-free, non-smokers. Blood is collected by venipuncture into Vacutainer tubes anticoagulated with sodium heparin. Test compounds are diluted to ten times the desired starting drug concentration in PBS (20×), followed by three-fold serial dilutions in 10% DMSO in PBS to produce a nine point dose-response curve. 5.5 μl of each compound dilution is added in duplicate to a 2 ml 96-well V bottom plate (Analytical Sales and Services, #59623-23); 5.5 μl of 10% DMSO in PBS is added to control and no-stimulus wells. HWB (100 μl) is added to each well, and after mixing the plates are incubated at 37 C, 5% CO2, 100% humidity for 30 minutes. Goat F(ab′)2 anti-human IgM (Southern Biotech, #2022-14) (10 μl of a 500 μg/ml solution, 50 μg/ml final concentration) is added to each well (except the no-stimulus wells) with mixing and the plates are incubated for an additional 20 hours.
At the end of the 20 hour incubation, samples are incubated with florescent-probe-labeled anti-bodies (15 μl PE Mouse anti-Human CD20, BD Pharmingen, #555623, and/or 20 ul APC Mouse anti-Human CD69, BD Pharmingen #555533) for 30 minutes, at 37 C, 5% CO2, 100% humidity. Included are induced control, unstained and single stains for compensation adjustments and initial voltage settings. Samples are then lysed with 1 ml of 1× Pharmingen Lyse Buffer (BD Pharmingen #555899), and plates are centrifuged at 1800 rpm for 5 minutes. Supernatants are removed via suction and the remaining pellets are lysed again with another 1 ml of 1× Pharmingen Lyse Buffer, and plates are spun down as before. Supernatants are aspirated and remaining pellets are washed in FACs buffer (PBS+1% FBS). After a final spin, the supernantants are removed and pellets are resuspended in 180 μl of FACs buffer. Samples are transferred to a 96 well plate suitable to be run on the HTS 96 well system on the BD LSR II flow cytometer.
Using appropriate excitation and emission wavelengths for the fluorophores used, data are acquired and percent positive cell values are obtained using Cell Quest Software. Results are initially analyzed by FACS analysis software (Flow Jo). […] The IC50 values are calculated using XLfit software version 3, equation 201.

Chain of Btk (Q06187 whole entry): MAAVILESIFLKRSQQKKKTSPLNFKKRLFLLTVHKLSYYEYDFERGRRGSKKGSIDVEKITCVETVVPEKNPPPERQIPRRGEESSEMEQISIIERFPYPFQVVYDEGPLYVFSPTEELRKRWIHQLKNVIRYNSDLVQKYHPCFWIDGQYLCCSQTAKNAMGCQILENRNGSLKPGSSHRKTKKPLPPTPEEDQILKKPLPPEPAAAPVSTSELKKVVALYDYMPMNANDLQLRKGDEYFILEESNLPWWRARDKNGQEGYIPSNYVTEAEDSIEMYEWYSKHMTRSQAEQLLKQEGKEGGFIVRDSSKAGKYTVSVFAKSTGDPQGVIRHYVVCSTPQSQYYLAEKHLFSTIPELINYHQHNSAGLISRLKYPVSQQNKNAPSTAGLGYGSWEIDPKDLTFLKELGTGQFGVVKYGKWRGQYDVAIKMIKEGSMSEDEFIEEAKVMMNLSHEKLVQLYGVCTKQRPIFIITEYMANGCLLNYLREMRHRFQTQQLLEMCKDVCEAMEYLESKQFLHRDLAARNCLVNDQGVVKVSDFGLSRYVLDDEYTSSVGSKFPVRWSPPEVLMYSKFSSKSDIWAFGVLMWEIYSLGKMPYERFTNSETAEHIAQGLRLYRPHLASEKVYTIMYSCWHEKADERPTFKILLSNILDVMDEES

Row | pIC50 (Btk) | pIC50 (Ramos cells) | pIC50 [1] | Structure (SMILES)
1 | 7.70 | 6.57 | 5.84 | Cn1cc(-c2ccnc(-n3ncc4cc(C(C)(C)C)cc(F)c4c3=O)c2CO)cc1C(N)=O [Compound I-16, 4-[2-(6-tert-Butyl-8-fluoro-1-oxo-1H-phthalazin-2-yl)-3-hydroxymethyl-pyridin-4-yl]-1-methyl-1H-pyrrole-2-carboxylic acid amide]
2 | 8.49 | 7.40 | 6.12 | CC(C)(C)c1cc(F)c2c(=O)n(-c3cccc(-n4cc(C(N)=O)c5cccnc54)c3CO)ncc2c1 [Compound I-15, 1-[3-(6-tert-Butyl-8-fluoro-1-oxo-1H-phthalazin-2-yl)-2-hydroxymethyl-phenyl]-1H-pyrrolo[2,3-b]pyridine-3-carboxylic acid amide]
